Results taken from PubChem BioAssay (NCI).
Where “and” joins values, the source holds several entries; their conditions need not be identical. Equal values may be shown once.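 Compound exposure: 48 hours, 5 concentrations, 96-well plates. Abbreviation: GI50, concentration required for 50% inhibition of growth. The concentration for full growth arrest is given as TGI.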

Key:
Assay in all cases: growth of human tumour cells (NCI), 48 h
UO-31 renal = system: UO-31 renal
SN12C renal = system: SN12C renal
SW-620 colon = system: SW-620 colon
CAKI-1 renal = system: CAKI-1 renal
SK-MEL-2 melanoma = system: SK-MEL-2 melanoma
SF-539 CNS = system: SF-539 CNS
HCC-2998 colon = system: HCC-2998 colon
MOLT-4 leukemia = system: MOLT-4 leukemia
HOP-92 NSCLC = system: HOP-92 NSCLC

| Compound | TGI (UO-31 renal) | TGI (SN12C renal) | TGI (SW-620 colon) | TGI (CAKI-1 renal) | TGI (SK-MEL-2 melanoma) | TGI (SF-539 CNS) | TGI (HCC-2998 colon) | TGI (MOLT-4 leukemia) | TGI (HOP-92 NSCLC) | GI50 (CAKI-1 renal) | GI50 (UO-31 renal) | GI50 (SN12C renal) | GI50 (SW-620 colon) | GI50 (SK-MEL-2 melanoma) | GI50 (SF-539 CNS) | GI50 (MOLT-4 leukemia) | GI50 (HCC-2998 colon) | GI50 (HOP-92 NSCLC) |
| --- | --- | --- | --- | --- | --- | --- | --- | --- | --- | --- | --- | --- | --- | --- | --- | --- | --- | --- |
| CN1c2ccccc2N(C)C2C1N(C)c1ccccc1N2C (centres undefined) | 82.2 µM | > 100 µM | > 100 µM | > 100 µM | 69.6 µM | 45.8 µM | 30.9 µM | 9.69 µM | 52.4 µM | – | – | – | – | – | – | – | – | – |
| COC1OC(CO)C(O)C(O)C1Br (centres undefined) | – | > 100 µM | > 100 µM | > 100 µM | – | > 100 µM | > 100 µM | > 100 µM | > 100 µM | – | – | – | – | – | – | – | – | – |
| CO/C1=C\C(C)=C\C(C)C(O)C(C)C/C(C)=C/C=C/C(OC)C(C(C)C(O)C(C)C2(O)CC(O)C(C)C(C(C)C)O2)OC1=O (centres undefined) | 0.0587 µM and 0.0234 µM | 17.6 µM | – | 9.89 µM | 0.0141 µM and 0.0178 µM | 0.0827 µM | 12.2 µM | 11.7 µM | 0.0225 µM | 0.021 µM | – | – | – | – | – | – | – | – |
| O=C(O)/C(=C/c1c(O)ccc2ccccc12)c1csc(-c2nc(/C(=C\c3c(O)ccc4ccccc34)C(=O)O)cs2)n1 | 6.87 µM | – | 59 µM | – | 10.2 µM | 19.1 µM | 32.4 µM | 36.9 µM | 7.77 µM | – | – | – | – | – | – | – | – | – |
| NC(=O)N/N=C/C(/C=N/NC(N)=O)[N+](=O)[O-] | – | > 100 µM | > 100 µM | > 100 µM | > 100 µM | > 100 µM | – | – | > 100 µM | – | – | – | – | – | – | – | – | – |
| COCC(=O)CP(=O)(OC)OC | > 100 µM | > 100 µM | > 100 µM | > 100 µM | > 100 µM | > 100 µM | – | > 100 µM | > 100 µM | – | – | – | – | – | – | – | – | – |
| CC1(C)OC(=O)C=C([O-])O1.CC1(C)OC(=O)C=C([O-])O1.O=S(=O)([O-])c1ccc([O-])c2ncccc12.O=S(=O)([O-])c1ccc([O-])c2ncccc12.[Ti+4] | > 100 µM | > 100 µM | > 100 µM | > 100 µM | > 100 µM | > 100 µM | – | > 100 µM | – | > 100 µM | > 100 µM | > 100 µM | > 100 µM | > 100 µM | 78.5 µM | 47.8 µM | – | – |
| Cc1c(C(=O)NCCO)[n+](=O)c2cc(Cl)ccc2n1[O-] | > 100 µM | > 100 µM | > 100 µM | – | – | > 100 µM | > 100 µM | > 100 µM | > 100 µM | – | – | – | – | – | – | – | – | – |
| CN(CN1C(=O)C2Cc3ccccc3CN2C1=O)c1ccccn1 (centres undefined) | > 100 µM | > 100 µM | > 100 µM | > 100 µM | > 100 µM | > 100 µM | > 100 µM | > 100 µM | – | – | – | – | – | – | – | – | – | – |
| Cn1c(=O)nc2n(-c3cccc(F)c3)c3ccccc3nc-2c1=O | > 100 µM | 73.9 µM | 26.4 µM | 96.9 µM | 52.6 µM | 66 µM | 39.6 µM | 54.1 µM | – | – | – | – | – | – | – | – | – | – |
| Cn1ncc2c(N)nc(N3CCCCC3)nc21 | > 100 µM | 75.2 µM | > 100 µM | > 100 µM | 71.6 µM | > 100 µM | 58.6 µM | – | > 100 µM | 29 µM | 43 µM | 28.5 µM | 31 µM | 23 µM | 25.4 µM | – | 18.6 µM | 44.3 µM |
| CC(=O)OCCOCNC(=S)N/N=C(\C)c1cnc2ccccc2n1 | > 100 µM | > 100 µM | > 100 µM | – | > 100 µM | > 100 µM | > 100 µM | > 100 µM | – | – | – | – | – | – | – | – | – | – |
| C=C=C(CC)C(C(=O)OC)N(CC)CC (centres undefined) | > 100 µM | > 100 µM | > 100 µM | > 100 µM | – | > 100 µM | – | > 100 µM | > 100 µM | – | – | – | – | – | – | – | – | – |
| O=C1C[C@@H]2C(COC(=O)c3ccccc3)N(OCc3ccccc3)C[C@@H]2O1 (some centres undefined) | > 100 µM | > 100 µM | > 100 µM | – | > 100 µM | > 100 µM | > 100 µM | > 100 µM | – | – | – | – | – | – | – | – | – | – |
| CN1NC2(CCCCC2)ON=C1c1ccccc1 | – | > 100 µM | > 100 µM | > 100 µM | – | > 100 µM | – | > 100 µM | > 100 µM | – | – | – | – | – | – | – | – | – |
| C(=N\OCc1ccccc1)/c1ncccc1C1OCCO1 | > 100 µM | > 100 µM | > 100 µM | > 100 µM | > 100 µM | > 100 µM | – | > 100 µM | > 100 µM | – | – | – | – | – | – | – | – | – |
| Cc1c(C(=O)c2ccccc2C(=O)O)c2ccccc2n1C | > 100 µM | – | > 100 µM | > 100 µM | > 100 µM | > 100 µM | > 100 µM | > 100 µM | – | – | – | – | – | – | – | – | – | – |
| CC(=O)O[C@H]1CC[C@@]2(C)C(=CC[C@H]3C4=CC=C(C(C)=O)[C@@]4(C)CCC32)C1 (some centres undefined) | > 100 µM | > 100 µM | 52.7 µM | > 100 µM | – | > 100 µM | > 100 µM | > 100 µM | > 100 µM | – | – | – | – | – | – | – | – | – |
| CCC(=O)C(C)C1=Nc2nnc(CCCCCCCc3nnc4n3C(=O)C(C(C)C(=O)CC)=N4)n2C1=O (centres undefined) | > 100 µM | > 100 µM | > 100 µM | > 100 µM | – | > 100 µM | > 100 µM | > 100 µM | > 100 µM | – | – | – | – | – | – | – | – | – |
| Cc1ccc(S(=O)(=O)NC(=O)NC23CC4CC(CC(F)(C4)C2)C3)cc1 | > 100 µM | – | > 100 µM | – | > 100 µM | > 100 µM | > 100 µM | > 100 µM | > 100 µM | – | – | – | – | – | – | – | – | – |
